The source of these data is patent US8623857B2, “N-phenyl imidazole carboxamide inhibitors of 3-phosphoinositide-dependent protein kinase-1” (Merck Sharp & Dohme Corp., priority 2010, dated 2014).

One assay deals with T1, recombinant human PDK1 (Homo sapiens, UniProt O15530).
T1 construct: containing amino acids 51-556 of the human PDK1 enzyme; made in house; host or cells: Sf9 insect cells
T1 sequence (O15530 51-556): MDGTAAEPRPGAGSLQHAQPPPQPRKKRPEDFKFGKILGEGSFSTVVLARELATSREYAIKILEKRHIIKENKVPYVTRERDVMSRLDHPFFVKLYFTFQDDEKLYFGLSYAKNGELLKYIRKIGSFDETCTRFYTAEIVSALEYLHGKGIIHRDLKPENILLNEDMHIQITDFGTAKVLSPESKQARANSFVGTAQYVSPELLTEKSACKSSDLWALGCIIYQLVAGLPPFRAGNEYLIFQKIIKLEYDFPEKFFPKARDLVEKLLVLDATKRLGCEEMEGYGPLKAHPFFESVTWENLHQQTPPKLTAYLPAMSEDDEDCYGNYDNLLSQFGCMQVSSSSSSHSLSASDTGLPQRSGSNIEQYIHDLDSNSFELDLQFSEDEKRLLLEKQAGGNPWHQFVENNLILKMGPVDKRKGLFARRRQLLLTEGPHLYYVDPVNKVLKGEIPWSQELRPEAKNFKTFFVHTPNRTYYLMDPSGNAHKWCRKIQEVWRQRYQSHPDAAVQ
The assay can be described thus: PDK1 IMAP fluorescence polarization assay (inhibition of peptide substrate phosphorylation). It counts as biochemical. The note with it: Table 6; 10 nM PDK1 enzyme, 100 nM peptide substrate, 100 nM PIFtide, 2.5 uM ATP, 1.5 hours. (Polarisation of emitted light reports the rotation of a fluorescent probe.)
As usually defined, the IC50 is the point on the concentration scale where inhibition reaches its midpoint. Consider `N[C@@H]1CCCN(c2c(F)cccc2NC(=O)c2nc(C3=CCOCC3)c[nH]2)C1` [Compound 22, N-[2-(3(R)-amino-1-piperidinyl)-3-fluorophenyl]-4-(3,6-dihydro-2h-pyran-4-yl)-1H-imidazole-2-carboxamide], for which the IC50 is 0.251 to 1 µM.
For the molecule `CCc1cc(-c2c[nH]c(C(=O)Nc3cccc(F)c3N3CCC(CN)CC3)n2)ccn1` [Compound 30, N-[2-[4-(aminomethyl)-1-piperidinyl]-3-fluorophenyl]-4-(2-ethyl-4-pyridinyl)-1H-imidazole-2-carboxamide], the IC50 was in the range of 0.001 to 0.05 µM.
On the same count and under the same terms, in the case of `Cc1cc(-c2c[nH]c(C(=O)Nc3cccc(F)c3N3CCC(C)(CN)CC3)n2)ccn1` [Compound 55, N-[2-[4-(aminomethyl)-4-methyl-1-piperidinyl]-3-fluorophenyl]-4-(2-methyl-4-pyridinyl)-1H-imidazole-2-carboxamide] it was 0.051 to 0.25 µM; in that of `N[C@@H]1CCCN(c2c(F)cccc2NC(=O)c2nc(-c3cncc(C(F)(F)F)c3)c[nH]2)C1` [Compound 9, N-[2-(3(R)-amino-1-piperidinyl)-3-fluorophenyl]-4-[5-(trifluoromethyl)-3-pyridinyl]-1H-imidazole-2-carboxamide], 1 to 5 µM.
On the same count and under the same terms, with `NCC1CCN(c2c(F)cccc2NC(=O)c2nc(-c3cc(NCc4ccc(F)c(F)c4)nc(N)n3)c[nH]2)CC1` [Compound 75, 4-[2-amino-6-[[(3,4-difluorophenyl)methyl]amino]-4-pyrimidinyl]-N-[2-[4-(aminomethyl)-1-piperidinyl]-3-fluorophenyl]-1H-imidazole-2-carboxamide] the figure was 0.001 to 0.05 µM; with `N[C@@H]1CCCN(c2c(F)cccc2NC(=O)c2nc(-c3ccnc(C(F)(F)F)c3)c[nH]2)C1` [Compound 19, N-[2-(3(R)-amino-1-piperidinyl)-3-fluorophenyl]-4-[2-(trifluoromethyl)-4-pyridinyl]-1H-imidazole-2-carboxamide], 0.051 to 0.25 µM; with `Cc1cc(-c2c[nH]c(C(=O)Nc3cccc(F)c3N3CCC4CCNC4C3)n2)ccn1` (centres unmarked) [Compound 43, N-[3-fluoro-2-(octahydro-6h-pyrrolo[2,3-c]pyridin-6-yl)phenyl]-4-(2-methyl-4-pyridinyl)-1H-imidazole-2-carboxamide], 0.051 to 0.25 µM.
The same measure, in the same setting: in the case of `Cc1cc(-c2c[nH]c(C(=O)Nc3cccc(F)c3N3CCC(C(=O)N4CC5CCC(C4)O5)CC3)n2)ccn1` [Compound 78, N-[3-fluoro-2-[4-(8-oxa-3-azabicyclo[3.2.1]oct-3-ylcarbonyl)-1-piperidinyl]phenyl]-4-(2-methyl-4-pyridinyl)-1H-imidazole-2-carboxamide] it was 0.251 to 1 µM; in that of `CN(C)CC1CCN(c2ccccc2NC(=O)c2nc(-c3ccnc(N)c3)c[nH]2)CC1` [Compound 40, 4-(2-amino-4-pyridinyl)-N-[2-[4-[(dimethylamino)methyl]-1-piperidinyl]phenyl]-1H-imidazole-2-carboxamide], 0.251 to 1 µM.
Take `Cc1cc(-c2c[nH]c(C(=O)Nc3cccc(F)c3N3CCC(C(N)=O)CC3)n2)ccn1` [Compound 82, 1-[2-fluoro-6-[[[4-(2-methyl-4-pyridinyl)-1H-imidazol-2-yl]carbonyl]amino]phenyl]-4-piperidinecarboxamide]: the IC50 lay in the range of 1 to 5 µM.
The same measure, in the same setting: in the case of `Cc1cc(-c2c[nH]c(C(=O)Nc3cccc(F)c3N3CCC(CN(C)C)CC3)n2)ccn1` [Compound 50, N-[2-[4-[(dimethylamino)methyl]-1-piperidinyl]-3-fluorophenyl]-4-(2-methyl-4-pyridinyl)-1H-imidazole-2-carboxamide] it was 0.251 to 1 µM.
`Nc1ccc(N2CCC[C@@H](N)C2)c(NC(=O)c2nc(Br)c[nH]2)c1` [Compound 16, N-[5-amino-2-(3(R)-amino-1-piperidinyl)phenyl]-4-bromo-1H-imidazole-2-carboxamide]: the IC50 lay in the range of 0.051 to 0.25 µM.
For `Cc1cc(-c2c[nH]c(C(=O)Nc3cccc(F)c3N3CCC(C(=O)N4CC5CC4CO5)CC3)n2)ccn1` (centres unmarked) [Compound 79, N-[3-fluoro-2-[4-(2-oxa-5-azabicyclo[2.2.1]hept-5-ylcarbonyl)-1-piperidinyl]phenyl]-4-(2-methyl-4-pyridinyl)-1H-imidazole-2-carboxamide], the IC50 was in the range of 1 to 5 µM.
Same read-out and setting: in the case of `Cc1cc(-c2c[nH]c(C(=O)Nc3cccc(F)c3N3CCC(C(=O)N[C@H](C)c4ccccc4)CC3)n2)ccn1` [Compound 65, 1-[2-fluoro-6-[[[4-(2-methyl-4-pyridinyl)-1H-imidazol-2-yl]carbonyl]amino]phenyl]-N-(1(R)-phenylethyl)-4-piperidinecarboxamide] it was 1 to 5 µM; in that of `Cc1cc(-c2c[nH]c(C(=O)Nc3cccc(F)c3N3CCC(C(=O)NCCN)CC3)n2)ccn1` [Compound 83, N-(2-aminoethyl)-1-[2-fluoro-6-[[[4-(2-methyl-4-pyridinyl)-1H-imidazol-2-yl]carbonyl]amino]phenyl]-4-piperidinecarboxamide], 0.051 to 0.25 µM; in that of `Cc1cc(-c2c[nH]c(C(=O)Nc3cccc(F)c3N3CCC(C(=O)N4CCC(O)(c5ccccn5)CC4)CC3)n2)ccn1` [Compound 96, N-[3-fluoro-2-[4-[[4-hydroxy-4-(2-pyridinyl)-1-piperidinyl]carbonyl]-1-piperidinyl]phenyl]-4-(2-methyl-4-pyridinyl)-1H-imidazole-2-carboxamide], 1 to 5 µM.
Still for that read-out and setting: in the case of `CCNC(=O)C1CCN(c2c(F)cccc2NC(=O)c2nc(-c3ccnc(C)c3)c[nH]2)CC1` [Compound 60, N-ethyl-1-[2-fluoro-6-[[[4-(2-methyl-4-pyridinyl)-1H-imidazol-2-yl]carbonyl]amino]phenyl]-4-piperidinecarboxamide] it was 1 to 5 µM; in that of `NCC1CCN(c2c(F)cccc2NC(=O)c2nc(-c3cn[nH]c3)c[nH]2)CC1` [Compound 53, N-[2-[4-(aminomethyl)-1-piperidinyl]-3-fluorophenyl]-4-(1H-pyrazol-4-yl)-1H-imidazole-2-carboxamide], 0.001 to 0.05 µM.
Still for that read-out and setting: in the case of `NCC1CCN(c2c(F)cccc2NC(=O)c2nc(-c3cc(N[C@@H](CO)c4ccccc4)nc(N)n3)c[nH]2)CC1` [Compound 72, 4-[2-amino-6-[[2-hydroxy-1(R)-phenylethyl]amino]-4-pyrimidinyl]-N-[2-[4-(aminomethyl)-1-piperidinyl]-3-fluorophenyl]-1H-imidazole-2-carboxamide] it was 0.001 to 0.05 µM.

The same assay, now with this note: Table 10; compounds 97-132.
Take `CNc1nc(-c2c[nH]c(C(=O)Nc3ccccc3N3CCNCC3)n2)cc(N2CCN(C(=O)OCc3ccccc3)CC2)n1` [Compound 105, benzyl 4-(2-(methylamino)-6-(2-(2-(piperazin-1-yl)phenylcarbamoyl)-1H-imidazol-4-yl)pyrimidin-4-yl)piperazine-1-carboxylate]: the IC50 is 1 to 5 µM.
Take `CNc1nc(-c2c[nH]c(C(=O)Nc3cccc(F)c3N3CCC(CN)CC3)n2)cc(N2CC[C@@](COC)(C(=O)NC3CCCCC3)C2)n1` [Compound 132, (R)—N-(2-(4-(aminomethyl)piperidin-1-yl)-3-fluorophenyl)-4-(6-(3-(cyclohexylcarbamoyl)-3-(methoxymethyl)pyrrolidin-1-yl)-2-(methylamino)pyrimidin-4-yl)-1H-imidazole-2-carboxamide]: the IC50 was 0.001 to 0.05 µM.
For the molecule `CNc1nc(-c2c[nH]c(C(=O)Nc3ccccc3N3CCNCC3)n2)cc(N2CCN(C(C)=O)CC2)n1` [Compound 103, 4-(6-(4-acetylpiperazin-1-yl)-2-(methylamino)pyrimidin-4-yl)-N-(2-(piperazin-1-yl)phenyl)-1H-imidazole-2-carboxamide], the IC50 was in the range of 0.051 to 0.25 µM.
On the same count and under the same terms, in the case of `CNc1nc(-c2c[nH]c(C(=O)Nc3cccc(F)c3N3CCC(CN)CC3)n2)cc(N2CCC(NC)(C(N)=O)CC2)n1` [Compound 127, 1-(6-(2-(2-(4-(aminomethyl)piperidin-1-yl)-3-fluorophenylcarbamoyl)-1H-imidazol-4-yl)-2-(methylamino)pyrimidin-4-yl)-4-(methylamino)piperidine-4-carboxamide] it was 0.001 to 0.05 µM.
The same measure, in the same setting: in the case of `CNc1nc(-c2c[nH]c(C(=O)Nc3cccc(F)c3N3CCC(CN)CC3)n2)cc(N2CCOC[C@H]2C)n1` [Compound 121, (R)—N-(2-(4-(aminomethyl)piperidin-1-yl)-3-fluorophenyl)-4-(2-(methylamino)-6-(3-methylmorpholino)pyrimidin-4-yl)-1H-imidazole-2-carboxamide] it was 0.001 to 0.05 µM; in that of `CNc1nc(-c2c[nH]c(C(=O)Nc3cccc(F)c3N3CCC[C@@H](N)C3)n2)cc(N2CC(C(=O)NC3CCCCC3)CCC2C)n1` (mixture of isomers) [Compound 114, 1-(6-(2-(2-((R)-3-aminopiperidin-1-yl)-3-fluorophenylcarbamoyl)-1H-imidazol-4-yl)-2-(methylamino)pyrimidin-4-yl)-N-cyclohexyl-6-methylpiperidine-3-carboxamide], 0.001 to 0.05 µM; in that of `CNc1nc(-c2c[nH]c(C(=O)Nc3cccc(F)c3N3CCC(CN)CC3)n2)cc(N2CCC(CN)CC2)n1` [Compound 125, 4-(6-(4-(aminomethyl)piperidin-1-yl)-2-(methylamino)pyrimidin-4-yl)-N-(2-(4-(aminomethyl)piperidin-1-yl)-3-fluorophenyl)-1H-imidazole-2-carboxamide], 0.001 to 0.05 µM.
